According to the NIST ThermoML archive (doi:10.1016/j.jct.2016.09.026):

Key:
[1] = molar heat capacity at constant pressure; settings: 101.33 kPa, Crystal, Small sample (50 mg) DSC
[2] = Crystal
[3] = Molar enthalpy of transition or fusion; settings: Crystal; DSC
[4] = molar enthalpy of vaporization or sublimation; settings: 351.22 K; Crystal; Static calorimetry

CCCC(=O)c1ccc(O)cc1 [1-(4-hydroxyphenyl)-1-butanone]
Settings	Normal melting temperature [°C]	molar heat capacity at constant pressure [J/K/mol]
[1], 288.67 K	–	219.2
[1], 289.99 K	–	221.2
[1], 291.29 K	–	221.3
[1], 291.6 K	–	222
[1], 292.87 K	–	223.3
[1], 294.14 K	–	224.2
[1], 295.4 K	–	225.7
[1], 296.66 K	–	227.4
[1], 297.92 K	–	228.6
[1], 299.17 K	–	229.2
[1], 300.43 K	–	231
[1], 301.68 K	–	232.3
[1], 302.94 K	–	232.9
[1], 304.19 K	–	234.6
[1], 305.45 K	–	234.9
[1], 306.7 K	–	236.9
[1], 307.95 K	–	238.6
[1], 309.21 K	–	239.7
[1], 310.46 K	–	240.7
[1], 311.71 K	–	242
[1], 312.96 K	–	243.7
[1], 314.21 K	–	244.9
[1], 315.46 K	–	245.8
[1], 316.71 K	–	247
[1], 317.96 K	–	247.7
[1], 319.22 K	–	249.1
[1], 320.47 K	–	250.2
[1], 321.72 K	–	251.4
[1], 322.97 K	–	253
[1], 324.23 K	–	254.5
[1], 325.48 K	–	256.4
[1], 326.73 K	–	257.1
[1], 327.98 K	–	258.9
[1], 329.23 K	–	260.2
[1], 330.48 K	–	262.1
[1], 331.73 K	–	263.6
[1], 332.98 K	–	265.5
[1], 334.23 K	–	265.9
[1], 335.48 K	–	267.6
[1], 336.73 K	–	270.1
[1], 337.98 K	–	270.4
[1], 339.23 K	–	272
[1], 340.48 K	–	274.4
[1], 341.73 K	–	276
[1], 342.98 K	–	278.2
[1], 344.23 K	–	279.7
[1], 345.48 K	–	281.2
[1], 346.73 K	–	282.8
[1], 347.98 K	–	284.5
[1], 349.23 K	–	287
[1], 350.48 K	–	289
[2], DTA	91.6	–

Settings	mass density [kg/m3]
[2], 298 K, 101.33 kPa, X-ray diffraction	1204.5

Settings	Molar enthalpy of transition or fusion [kcal/mol]	molar enthalpy [kcal/mol]
[3]	5.73	–
[4]	–	27.3
